pIC50, pKi: −log10 of the molar value. Some results are limits rather than exact numbers.

The first assay has as its target T1, Corticotropin-releasing factor receptor 1 (Homo sapiens, UniProt P34998).
T1 sequence (P34998 whole entry): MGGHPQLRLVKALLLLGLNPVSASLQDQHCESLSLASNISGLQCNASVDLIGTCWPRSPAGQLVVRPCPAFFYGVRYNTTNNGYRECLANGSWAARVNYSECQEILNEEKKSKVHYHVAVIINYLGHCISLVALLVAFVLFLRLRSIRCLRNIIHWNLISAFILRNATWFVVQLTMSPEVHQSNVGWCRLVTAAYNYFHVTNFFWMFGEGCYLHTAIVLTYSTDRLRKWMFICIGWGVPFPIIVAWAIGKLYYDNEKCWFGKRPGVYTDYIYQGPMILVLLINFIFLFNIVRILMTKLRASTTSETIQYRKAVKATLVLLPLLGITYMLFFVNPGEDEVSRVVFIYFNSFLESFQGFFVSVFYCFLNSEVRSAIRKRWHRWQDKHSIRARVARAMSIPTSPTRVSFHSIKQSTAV
The assay is described as follows: Inhibition of Corticotropin releasing factor receptor 1-stimulated cAMP production. Type of assay: functional.
`CCN(CCOC)c1cc(C)nc2c(-c3ccc(Cl)cc3Cl)nn(C)c12`: the pIC50 is 7.82.
Still for that read-out and setting: the same measure for `CCCCN(CCCC)c1cc(C)nc2c(-c3ccc(Cl)cc3Cl)nn(C)c12`: 8.30.
On the same count and under the same terms, the same measure for `CCCN(CCOC)c1cc(C)nc2c(-c3ccc(Cl)cc3Cl)nn(C)c12`: 7.44; for `COCCN(CCOC)c1cc(C)nc2c(-c3ccc(Cl)cc3Cl)nn(C)c12`: 7.42.
With `CCCN(CCO)c1cc(C)nc2c(-c3ccc(Cl)cc3Cl)nn(C)c12`, the pIC50 is 7.74.
Same read-out and setting: the same measure for `CCCCN(CC1CC1)c1cc(C)nc2c(-c3ccc(Cl)cc3Cl)nn(C)c12`: 8.52.

In a further assay the target is T1, Corticotropin-releasing factor receptor 1. The experiment in a line: Inhibition of (Corticotropin-Releasing Factor Receptor) CRF-stimulated cAMP production. It is filed as functional. In general terms: Changes in cAMP serve as a functional read-out for many G protein-coupled receptors.
Consider `CCCN(CC1CC1)c1cc(C)nc2c(-c3ccc(Cl)cc3Cl)nn(C)c12`, for which the pIC50 is 7.80.

The next assay has the same target. The experiment in a line: Binding affinity towards Corticotropin releasing factor receptor 1 was measured through displacement of [125I]sauvagine expressed in HEK293 cells. Type of assay: cell-based. (In general: Loss of bound radioactivity is the signal in a displacement assay; it reports binding, not function.)
The compound `CCCCCCN(CCOC)c1cc(C)nc2c(-c3ccc(Cl)cc3Cl)nn(C)c12` gave a pKi of 8.40.
The same measure, in the same setting: to `CCCC(CO)Nc1cc(C)nc2c(-c3ccc(Cl)cc3Cl)nn(C)c12` (stereo unspecified) belongs 7.21; to `COCCN(C)c1cc(C)nc2c(-c3ccc(Cl)cc3Cl)nn(C)c12`, 7.49.
Still for that read-out and setting: to `CCCN(CC)c1cc(C)nc2c(-c3ccc(Cl)cc3Cl)nn(C)c12` belongs 8.39; to `CCCN(CCCOC)c1cc(C)nc2c(-c3ccc(Cl)cc3Cl)nn(C)c12`, 8.01; to `CCCCN(CCSC)c1cc(C)nc2c(-c3ccc(Cl)cc3Cl)nn(C)c12`, 8.85.
Still for that read-out and setting: to `CCCCN(CCCC)c1cc(C)nc2c(-c3c(C)cc(C)cc3C)nn(C)c12` belongs 8.29; to `CCCCNc1cc(C)nc2c(-c3ccc(Cl)cc3Cl)nn(C)c12`, 6.77; to `CCN(CCOC)c1cc(C)nc2c(-c3ccc(Cl)cc3Cl)nn(C)c12`, 8.49.
As to `CCCCCN(CCOC)c1cc(C)nc2c(-c3ccc(Cl)cc3Cl)nn(C)c12`, the pKi is 8.17.
As for `CCCCN(CCCC)c1cc(C)nc2c(-c3ccc(Cl)cc3)nn(C)c12`, the negative-log Ki (pKi) is 6.47.
Same read-out and setting: to `Cc1cc(N(CC(C)C)CC2CC2)c2c(n1)c(-c1ccc(Cl)cc1Cl)nn2C` belongs 8.43; to `CCCCCN(CC)c1cc(C)nc2c(-c3ccc(Cl)cc3Cl)nn(C)c12`, 8.89; to `CCCCN(CCCC)c1cc(C)nc2c(-c3ccc(C)cc3Cl)nn(C)c12`, 8.55.
Same read-out and setting: the same measure for `CCCCCN(CCCC)c1cc(C)nc2c(-c3ccc(Cl)cc3Cl)nn(C)c12`: 9.05; for `CCCCN(CCCOC)c1cc(C)nc2c(-c3ccc(Cl)cc3Cl)nn(C)c12`: 7.74.
With `CCCCN(CCCC)c1cc(C)nc2c(-c3ccc(OC)cc3Cl)nn(C)c12`, the pKi is 8.32.
Compound `CCN(CCCOC)c1cc(C)nc2c(-c3ccc(Cl)cc3Cl)nn(C)c12` showed a pKi of 7.90.
The same measure, in the same setting: the same measure for `CCCN(C)c1cc(C)nc2c(-c3ccc(Cl)cc3Cl)nn(C)c12`: 7.62; for `CCCCCCN(CC1CC1)c1cc(C)nc2c(-c3ccc(Cl)cc3Cl)nn(C)c12`: 9.00.
Same read-out and setting: the same measure for `CCCN(CCOC)c1cc(C)nc2c(-c3ccc(Cl)cc3Cl)nn(C)c12`: 8.29.
`CCCCN(CCc1ccccn1)c1cc(C)nc2c(-c3ccc(Cl)cc3Cl)nn(C)c12` showed a negative logarithm of the Ki (pKi) of 7.89.
As to `CCCCCN(CCC)c1cc(C)nc2c(-c3ccc(Cl)cc3Cl)nn(C)c12`, the pKi is 8.92.
Compound `CCCCN(CC1CCCN1C)c1cc(C)nc2c(-c3ccc(Cl)cc3Cl)nn(C)c12` (stereo unspecified) gave a negative-log Ki (pKi) of 6.42.
Same read-out and setting: to `CCCCN(CCCC)c1cc(C)nc2c(-c3c(C)cc(C)cc3Cl)nn(C)c12` belongs 8.68; to `CCCCN(CCOC)c1cc(C)nc2c(-c3ccc(Cl)cc3Cl)nn(C)c12`, 7.98.
`COCCN(c1cc(C)nc2c(-c3ccc(Cl)cc3Cl)nn(C)c12)C(C)C` gave a pKi of 8.01.
Still for that read-out and setting: to `Cc1cc(NCc2ccc(O)cc2)c2c(n1)c(-c1ccc(Cl)cc1Cl)nn2C` belongs < 5.00.
Same read-out and setting: the same measure for `CCCN(Cc1ccc(O)cc1)c1cc(C)nc2c(-c3ccc(Cl)cc3Cl)nn(C)c12`: 7.89; for `COCCN(CCOC)c1cc(C)nc2c(-c3ccc(Cl)cc3Cl)nn(C)c12`: 8.09; for `CCCCCN(CC1CC1)c1cc(C)nc2c(-c3ccc(Cl)cc3Cl)nn(C)c12`: 8.82.
`CCCCN(c1cc(C)nc2c(-c3ccc(Cl)cc3Cl)nn(C)c12)C(CC)CC` showed a negative-log Ki (pKi) of 8.15.
On the same count and under the same terms, to `CCCCN(CC1CCCO1)c1cc(C)nc2c(-c3ccc(Cl)cc3Cl)nn(C)c12` (stereo unspecified) belongs 7.95.
In the case of `CCCN(CCO)c1cc(C)nc2c(-c3ccc(Cl)cc3Cl)nn(C)c12`, the pKi is 8.36.
The compound `CCN(CC1CC1)c1cc(C)nc2c(-c3ccc(Cl)cc3Cl)nn(C)c12` showed a pKi of 8.36.
Same read-out and setting: to `CCCCN(CCc1ccncc1)c1cc(C)nc2c(-c3ccc(Cl)cc3Cl)nn(C)c12` belongs 7.47; to `CCCCN(CC1CC1)c1cc(C)nc2c(-c3ccc(Cl)cc3Cl)nn(C)c12`, 8.89.
In the case of `CCCCN(Cc1ccncc1)c1cc(C)nc2c(-c3ccc(Cl)cc3Cl)nn(C)c12`, the negative-log Ki (pKi) is 7.17.
Same read-out and setting: to `COCCN(CC(C)C)c1cc(C)nc2c(-c3ccc(Cl)cc3Cl)nn(C)c12` belongs 7.98.

What is called pIC50 is the IC50 on a negative log10 scale, so that one unit is a factor of ten. A lower pIC50 goes with a large IC50. The term pKi denotes the negative decadic logarithm of the Ki, by convention in mol/L. Higher therefore signals a low Ki.
